Reference: ChEMBL document CHEMBL6177948, “Discovery of potential Leonurine-based therapeutic lead MJ210 attenuates Parkinson's disease pathogenesis via NF-κB and MAPK pathways: Mechanistic insights from in vitro and in vivo rotenone models” (Eur J Med Chem, 2025)

System: SH-SY5Y
Experiment: Neuroprotective activity against rotenone-induced cytotoxicity in human SH-SY5Y cells assessed as increase in cell viability at 1 to 20 uM incubated for 24 hrs by MTT assay relative to control
Format: functional
Conditions: dose 1-20 µM

In the case of `COc1cc(CCC(=O)Nc2nc3ccccc3s2)cc(OC)c1OC(=O)C1CCCN1C(=O)OC(C)(C)C` (stereo unspecified), the Activity is reported as greater than 80%.

With `COc1cc(/C=C/C(=O)N2CCCCC2)cc(OC)c1OC(=O)c1ccccn1` the Activity was greater than 80%.

Work on `COc1ccc(N2CCN(C(=O)CCc3cc(OC)c(OC(=O)c4ccccn4)c(OC)c3)CC2)cc1` yielded an Activity greater than 80%.

Work on `COc1cc(CCC(=O)N2CCN(c3ccccc3)CC2)cc(OC)c1OC(=O)c1ccccn1` yielded an Activity greater than 80%.

In the case of `COc1cc(CCC(=O)N2CCCCC2)cc(OC)c1OC(=O)C1CCCN1C(=O)OC(C)(C)C` (stereo unspecified), the Activity is reported as greater than 80%.

With `COc1cc(CCC(=O)NCc2ccc3c(c2)OCO3)cc(OC)c1OC(=O)c1ccccn1` the Activity was greater than 80%.
